Reference: patent US12043632B2, “6-heteroaryloxy benzimidazoles and azabenzimidazoles as JAK2 inhibitors” (Ajax Therapeutics, Inc., priority 2020, dated 2024)

Molecular target: T1, JAK2 (JH1domain-catalytic, Y1007F,Y1008F) kinase (Homo sapiens, UniProt O60674, Y1007F/Y1008F)
T1 construct: JAK2 (JH1domain-catalytic, Y1007F,Y1008F) kinase was expressed as N-terminal fusion; made in house; host or cells: transiently transfected HEK293 cells
Assay: JAK2 JH1 Domain Binding Assay
Details: qPCR readout

T1 sequence (O60674 849-1124 Y1007F/Y1008F limits assumed): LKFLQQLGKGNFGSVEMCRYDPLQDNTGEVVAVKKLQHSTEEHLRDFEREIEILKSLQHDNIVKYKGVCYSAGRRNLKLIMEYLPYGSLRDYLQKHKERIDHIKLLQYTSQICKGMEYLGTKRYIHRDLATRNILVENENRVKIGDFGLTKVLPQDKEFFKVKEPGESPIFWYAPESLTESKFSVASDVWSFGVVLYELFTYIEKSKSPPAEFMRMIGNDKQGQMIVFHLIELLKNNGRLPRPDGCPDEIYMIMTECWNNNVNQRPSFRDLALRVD

SMILES | Kd
C[C@H](CO)Cn1cc(C2CC2)cc(Nc2nc3ncc(Oc4cnn5ccncc45)c(Cl)c3n2C)c1=O (single isomer, unassigned) [Example I-81-a] | < 10 nM
C[C@@H](CO)Cn1cc(C2CC2)cc(Nc2nc3ncc(Oc4cnn5ccncc45)c(Cl)c3n2C)c1=O (single isomer, unassigned) [Example I-81-b] | < 10 nM
COc1c(Oc2cnn3ccccc23)cnc2nc(Nc3cc(C4CC4)cn([C@H]4CCCOC4)c3=O)n(C)c12 (single isomer, unassigned) [Example I-101-a] | < 10 nM
COc1c(Oc2cnn3ccccc23)cnc2nc(Nc3cc(C4CC4)cn([C@@H]4CCCOC4)c3=O)n(C)c12 (single isomer, unassigned) [Example I-101-b] | < 10 nM
COc1c(Oc2cnn3ccncc23)cnc2nc(Nc3cc(C4CC4)cn([C@@H]4CC[C@@H]4O)c3=O)n(C)c12 (single isomer, unassigned) [Example I-104-a] | < 10 nM
COc1c(Oc2cnn3ccncc23)cnc2nc(Nc3cc(C4CC4)cn([C@H]4CC[C@H]4O)c3=O)n(C)c12 (single isomer, unassigned) [Example I-104-b] | < 10 nM
Cn1c(Nc2cc(C(F)(F)F)cn([C@H]3CC[C@@H]3O)c2=O)nc2ncc(Oc3cnn4ccncc34)c(Cl)c21 (single isomer, unassigned) [Example I-105-a] | < 10 nM
Cn1c(Nc2cc(C(F)(F)F)cn([C@@H]3CC[C@H]3O)c2=O)nc2ncc(Oc3cnn4ccncc34)c(Cl)c21 (single isomer, unassigned) [Example I-105-b] | < 10 nM
Cn1c(Nc2cc(C(F)(F)F)cn([C@@H]3CCCOC3)c2=O)nc2ncc(Oc3cnn4ccncc34)c(Cl)c21 (single isomer, unassigned) [Example I-107-a] | < 10 nM
Cn1c(Nc2cc(C(F)(F)F)cn([C@H]3CCCOC3)c2=O)nc2ncc(Oc3cnn4ccncc34)c(Cl)c21 (single isomer, unassigned) [Example I-107-b] | < 10 nM
COc1c(Oc2cnn3ccncc23)cnc2nc(Nc3cc(C4CC4)cn([C@H]4CC[C@@H]4O)c3=O)n(C)c12 (single isomer, unassigned) [Example I-110-a] | < 10 nM

The next lines start with the values.

Kd | SMILES
10 to 50 nM | Cn1c(Nc2cc(C(C)(C)C)n([C@@H]3COC[C@H]3O)n2)nc2ncc(Oc3cnc4cnc(C5CC5)n4c3)c(Cl)c21 (single isomer, unassigned) [Example I-76-b]
10 to 50 nM | Cn1c(Nc2cc(C(C)(C)C)n([C@H]3COC[C@@H]3O)n2)nc2ncc(Oc3cnc4cnc(C5CC5)n4c3)c(C(F)F)c21 (single isomer, unassigned) [Example I-93-a]
50 to 1000 nM | Cn1c(Nc2cc(C(C)(C)C)n([C@@H]3COC[C@H]3O)n2)nc2ncc(Oc3cnc4cnc(C5CC5)n4c3)c(C(F)F)c21 (single isomer, unassigned) [Example I-93-b]
< 10 nM | Cn1c(Nc2cc(C3CC3)cn([C@H]3CC[C@@H]3O)c2=O)nc2ncc(Oc3cnn4ccncc34)c(Cl)c21 (single isomer, unassigned) [Example I-95-a]
< 10 nM | Cn1c(Nc2cc(C3CC3)cn([C@@H]3CC[C@H]3O)c2=O)nc2ncc(Oc3cnn4ccncc34)c(Cl)c21 (single isomer, unassigned) [Example I-95-b]
< 10 nM | Cn1c(Nc2cc(C3CC3)cn([C@@H]3CC[C@@H]3O)c2=O)nc2ncc(Oc3cnn4ccncc34)c(Cl)c21 (single isomer, unassigned) [Example I-98-a]
< 10 nM | Cn1c(Nc2cc(C3CC3)cn([C@H]3CC[C@H]3O)c2=O)nc2ncc(Oc3cnn4ccncc34)c(Cl)c21 (single isomer, unassigned) [Example I-98-b]
< 10 nM | Cn1c(Nc2cc(C3CC3)cn([C@H]3CC[C@@H]3O)c2=O)nc2ncc(Oc3cnn4ccccc34)c(Cl)c21 (single isomer, unassigned) [Example I-99-a]
< 10 nM | Cn1c(Nc2cc(C3CC3)cn([C@@H]3CC[C@H]3O)c2=O)nc2ncc(Oc3cnn4ccccc34)c(Cl)c21 (single isomer, unassigned) [Example I-99-b]
